Test results: US6039950A, “Pharmaceutical grade saw palmetto” (priority 1997, dated 2000)
Where “and” joins values, the source holds several entries; their conditions need not be identical. Identical values can stand only once. Like-named read-outs stand apart in the source and are kept apart here. Numbered stars: 1 amine (or outer) side, 2 acyl side, 3 side chain; on linkers, the order of the positions; unused ones are H or OH. Bridge positions count the residues as written; N and C are the ends. Square brackets hold non-standard residues; d marks the D form. Peptide text beside a SMILES is read from it. I, II: the chains in the order shown. Actinocin(9to1) = Cc1c2oc3c(C)ccc(C(=O)[*:1])c3nc-2c(C(=O)[*:2])c(N)c1=O; NMeV = CN[C@H](C(=O)O)C(C)C; Sar = CNCC(=O)O

Columns and labels:
smooth muscle = settings: cited from earlier work
Cyclooxygenase-1 = molecular target: T1, Cyclooxygenase-1 (Ovis aries, UniProt P05979); assay: biochemical; type: biochemical, ram; settings: for Cox1 activity: screened at 3×10^-4 M
T1 construct: Cyclooxygenase-1 (from ram seminal vesicles); from tissue; host or cells: ram seminal vesicles; assay by Panlabs
T1 sequence (P05979 25-600): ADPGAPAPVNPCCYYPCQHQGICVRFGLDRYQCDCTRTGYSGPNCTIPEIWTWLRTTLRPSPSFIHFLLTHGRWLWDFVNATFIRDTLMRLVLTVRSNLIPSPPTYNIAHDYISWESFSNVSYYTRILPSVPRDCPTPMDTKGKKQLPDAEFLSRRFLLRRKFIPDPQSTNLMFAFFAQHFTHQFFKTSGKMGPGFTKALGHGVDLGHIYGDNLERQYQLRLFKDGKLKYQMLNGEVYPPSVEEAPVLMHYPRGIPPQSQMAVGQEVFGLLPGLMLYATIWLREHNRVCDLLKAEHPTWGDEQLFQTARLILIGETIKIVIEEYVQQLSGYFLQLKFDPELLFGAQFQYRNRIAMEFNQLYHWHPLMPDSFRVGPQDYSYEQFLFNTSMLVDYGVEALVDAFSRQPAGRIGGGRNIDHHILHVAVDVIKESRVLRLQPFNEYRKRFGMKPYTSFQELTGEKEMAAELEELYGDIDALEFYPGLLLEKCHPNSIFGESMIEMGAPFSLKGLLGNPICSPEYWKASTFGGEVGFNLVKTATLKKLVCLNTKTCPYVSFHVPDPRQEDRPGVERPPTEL
Method: The reaction was initiated by addition of arachidonic acid (100 mM) and terminated after 20 minutes incubation at 37° C. by addition of trichloroacetic acid (TCA).

Cyclooxygenase-2 = molecular target: T2, Cyclooxygenase-2 (Ovis aries, UniProt P79208); assay: biochemical; type: biochemical, sheep
T2 construct: Cyclooxygenase-2 (from sheep placenta); from tissue; host or cells: sheep placenta; assay by Panlabs
T2 sequence (P79208 17-603): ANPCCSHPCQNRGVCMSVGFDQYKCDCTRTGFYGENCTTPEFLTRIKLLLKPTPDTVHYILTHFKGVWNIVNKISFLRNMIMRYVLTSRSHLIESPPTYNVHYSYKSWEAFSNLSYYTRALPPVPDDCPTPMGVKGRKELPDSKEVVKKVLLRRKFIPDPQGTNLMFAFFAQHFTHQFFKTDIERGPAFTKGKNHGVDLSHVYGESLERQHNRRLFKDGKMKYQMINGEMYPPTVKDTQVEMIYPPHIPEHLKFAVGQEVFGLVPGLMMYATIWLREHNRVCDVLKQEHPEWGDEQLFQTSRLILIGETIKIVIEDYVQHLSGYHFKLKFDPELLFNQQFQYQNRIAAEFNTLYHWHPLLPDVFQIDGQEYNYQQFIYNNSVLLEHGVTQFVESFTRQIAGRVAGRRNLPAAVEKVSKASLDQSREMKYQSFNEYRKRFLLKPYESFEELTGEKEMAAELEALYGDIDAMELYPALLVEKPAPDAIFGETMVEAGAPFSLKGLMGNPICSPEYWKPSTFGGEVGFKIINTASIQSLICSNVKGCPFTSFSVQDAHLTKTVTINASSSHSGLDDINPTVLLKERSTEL
Method: The reaction is initiated by addition of arachidonic acid (100 mM) and terminated after 20 minutes incubation at 37° C. by addition of TCA.

5-lipoxygenase = molecular target: T3, 5-lipoxygenase (Rattus norvegicus, UniProt P12527); assay: biochemical; settings: for 5-Lipo activity: screened at 3×10^-5 (30 μM)
T3 sequence (P12527 1-673): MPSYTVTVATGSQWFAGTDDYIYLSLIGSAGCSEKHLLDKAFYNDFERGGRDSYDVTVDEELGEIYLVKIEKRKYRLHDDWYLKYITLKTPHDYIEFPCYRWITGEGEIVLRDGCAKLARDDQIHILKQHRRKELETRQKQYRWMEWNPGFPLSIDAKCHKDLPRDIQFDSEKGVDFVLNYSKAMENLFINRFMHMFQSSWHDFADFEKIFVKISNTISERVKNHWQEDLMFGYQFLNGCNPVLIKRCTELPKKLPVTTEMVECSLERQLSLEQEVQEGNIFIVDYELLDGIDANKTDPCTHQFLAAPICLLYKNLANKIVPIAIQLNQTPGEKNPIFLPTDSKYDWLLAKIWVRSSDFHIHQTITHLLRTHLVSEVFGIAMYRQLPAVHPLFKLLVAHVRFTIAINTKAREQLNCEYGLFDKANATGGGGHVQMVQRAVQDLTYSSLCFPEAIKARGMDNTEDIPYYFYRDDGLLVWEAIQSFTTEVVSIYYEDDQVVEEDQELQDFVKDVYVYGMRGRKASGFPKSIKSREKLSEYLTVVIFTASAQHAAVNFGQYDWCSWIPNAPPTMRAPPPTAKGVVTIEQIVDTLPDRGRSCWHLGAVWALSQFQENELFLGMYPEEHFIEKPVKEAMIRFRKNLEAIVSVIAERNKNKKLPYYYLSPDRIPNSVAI

[1] = molecular target: T4, rat prostatic androgen receptor (Rattus norvegicus, UniProt P15207); assay: Rat prostatic nuclear androgen receptor binding assay against 3H-dihydrotestosterone
T4 construct: the ventral prostates were rapidly removed and placed in ice-cold "homogenization buffer"; from tissue; host or cells: washed nuclear suspension of ventral prostate from testosterone-treated male rats (Harlan)
T4 sequence (P15207 1-902): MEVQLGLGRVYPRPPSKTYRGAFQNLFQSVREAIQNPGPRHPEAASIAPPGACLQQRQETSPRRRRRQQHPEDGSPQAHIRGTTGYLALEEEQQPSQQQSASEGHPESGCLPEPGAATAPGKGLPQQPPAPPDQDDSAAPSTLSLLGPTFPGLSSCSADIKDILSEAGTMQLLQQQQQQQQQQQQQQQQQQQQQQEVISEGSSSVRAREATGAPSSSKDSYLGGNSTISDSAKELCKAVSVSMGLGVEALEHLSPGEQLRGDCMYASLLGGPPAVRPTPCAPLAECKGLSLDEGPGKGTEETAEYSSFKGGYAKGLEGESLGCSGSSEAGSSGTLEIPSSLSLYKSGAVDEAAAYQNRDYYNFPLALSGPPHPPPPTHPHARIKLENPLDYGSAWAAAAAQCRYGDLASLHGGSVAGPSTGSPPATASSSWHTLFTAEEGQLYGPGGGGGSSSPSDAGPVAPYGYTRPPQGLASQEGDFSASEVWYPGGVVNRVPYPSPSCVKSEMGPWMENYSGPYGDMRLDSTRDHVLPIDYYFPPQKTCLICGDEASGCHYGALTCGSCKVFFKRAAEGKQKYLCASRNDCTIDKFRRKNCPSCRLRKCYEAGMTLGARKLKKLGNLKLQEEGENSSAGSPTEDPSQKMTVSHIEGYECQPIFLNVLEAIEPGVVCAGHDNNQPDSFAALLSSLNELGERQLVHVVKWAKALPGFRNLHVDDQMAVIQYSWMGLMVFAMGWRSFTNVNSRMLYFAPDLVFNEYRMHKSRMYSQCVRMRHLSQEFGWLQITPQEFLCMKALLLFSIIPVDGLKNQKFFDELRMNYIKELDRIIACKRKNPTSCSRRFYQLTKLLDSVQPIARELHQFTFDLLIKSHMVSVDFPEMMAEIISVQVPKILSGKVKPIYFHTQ
Method: Rats were fed with Purina chow and tap water, ad libitum.
General chemicals (reagent grade), free fatty acids, fatty acid ethyl esters and radioinert steroids were obtained from Sigma Chemical Company (St. Louis, Mo.). ^3 H-dihydrotestosterone (5α-androstan-17β-ol-3-one; 60 Ci/mmol) was purchased from NEN Life Science Products (Boston, Mass.). 100% ethanol was used throughout for the preparations of all inhibitors and radioinert chemicals.
The animals were treated intraperitoneally with testosterone (400 μg/100 g body wt). […] The homogenate was centrifuged at 800×g for 20 minutes at 4° C. […] The resuspended pellet was homogenized on ice using a glass Dounce homogenizer until suspension became uniform.
Non-specific binding was determined using radioinert dihydrotestosterone (10^-5 M) in place of the inhibitor. The test tubes were incubated for 20 hours at 15° C.
After an overnight incubation, 1 ml of ice-cold nuclear buffer was added followed by centrifugation at 800×g for 10 minutes at 4° C. The nuclear pellets were washed 3 times by resuspension in 1 ml of the same ice-cold nuclear buffer, with mixing and centrifugation as above. After discarding the final supernatant, 1 ml of 100% ethanol was added to each pellet and then vortexed. Test tubes were placed in a 30° C. water bath for 40 minutes, with vortexing every 10 minutes and a final centrifugation at 800 g for 10 minutes. The ethanol extracts were decanted into vials containing 4 ml of scintillation fluid (Ecoscint A), shaken and counted.
The results, expressed as percent inhibition of ^3 H-Dihydrotestosterone binding, at two concentrations of putative active components, of the rat prostatic androgen receptor assay are below.

Type 1 5α-reductase = settings: cited from earlier work
Type 2 5α-reductase = settings: cited from earlier work
[2] = Table 8, read-out: Cyclooxygenase-1 IC50 (Table 8)
[3] = Table 8, read-out: Cyclooxygenase-2 IC50 (Table 8)
[4] = Table 8, read-out: 5 Lipoxygenase IC50 (Table 8)
[5] = read-out: Testosterone affinity, Km

Compound | effect on relaxant effect of Sabal extracts (smooth muscle) | IC50 (Cyclooxygenase-1; [2]) | Cox1 activity (Cyclooxygenase-1) | Cox2 activity (Cyclooxygenase-2) | 5-Lipo activity (5-lipoxygenase) | other results
C[C@@H]1C[C@@H]([C@H](O)CC2CC(=O)NC(=O)C2)C(=O)[C@@H](C)C1 [Cycloheximide] | antagonized | – | – | – | – | –
CCCCCCCC/C=C\CCCCCCCC(=O)OCC [Ethyl Oleate] | – | > 300 µM | Negative | Negative | Negative | IC50 (Cyclooxygenase-2): > 300 µM; IC50 (5-lipoxygenase): > 30 µM
CCCCCCCCCCCCCCCC(=O)OCC [Ethyl Palmitate] | – | > 300 µM | Negative | Negative | Negative | IC50 (Cyclooxygenase-2; [3]): > 300 µM; IC50 (5-lipoxygenase; [4]): > 30 µM
CCCCC/C=C\C/C=C\CCCCCCCC(=O)OCC [Ethyl linoleate, ethyl linoleate] | – | > 300 µM | Negative | Negative | Negative | IC50 (Cyclooxygenase-2; [3]): > 300 µM; IC50 (5-lipoxygenase; [4]): > 30 µM
CC/C=C\C/C=C\C/C=C\CCCCCCCC(=O)OCC [Ethyl linolenate] | – | > 300 µM | Negative | Negative | Negative | IC50 (Cyclooxygenase-2; [3]): > 300 µM; IC50 (5-lipoxygenase; [4]): > 30 µM
CC(C)NC[C@H](O)COc1cccc2ccccc12 [L-propranolol] | potentiated | – | – | – | – | –
CCCCCCCCCCCCCC(=O)O [Myristic Acid] | – | > 300 µM | Negative | Negative | Negative | IC50 (Cyclooxygenase-2; [3]): > 300 µM; IC50 (5-lipoxygenase): > 30 µM
CCCCCCCCCCCCCC(=O)OCC [Myristic Ester, ethyl myristate] | – | – | Negative | Negative | Negative | –
CCCCCCCC/C=C\CCCCCCCC(=O)O [Oleic Acid] | – | > 300 µM | Negative | Negative | Negative | IC50 (Cyclooxygenase-2): > 300 µM; IC50 (5-lipoxygenase; [4]): > 30 µM
CCCCCCCCCCCCCCCC(=O)O [Palmitic Acid] | – | > 300 µM | Negative | Negative | Negative | IC50 (Cyclooxygenase-2; [3]): > 300 µM; IC50 (5-lipoxygenase; [4]): > 30 µM
C/C(=C\CO)CCC[C@H](C)CCC[C@H](C)CCCC(C)C [Phytol] | – | – | – | – | – | % Inh, individual experiment ([1]; 1.00E-04 M): 87.0% and 64% and 97% and 8.0% and 31% and 29% and 33%; % Inh, individual experiment ([1]; 1.00E-05 M): 0.0% and 76% and 10% and 4.0% and 26% and 38% and 41%; % Inh, Mean ([1]; 1.00E-05 M, SE 10.1): 32.0%; % Inh, individual experiment ([1]; 1.00E-06 M): 82.0% and 88% and 81% and 31% and 25% and 3.0% and 7.0%; % Inh, Mean ([1]; 1.00E-06 M, SE 14.12): 31.0%; % Inh, individual experiment ([1]; 3.00E-05 M): 89.0% and 90% and 32% and 25% and 9.0% and 20% and 21%; % Inh, Mean ([1]; 3.00E-05 M, SE 12.8): 28.5%; % Inh, individual experiment ([1]; 3.00E-06 M): 65% and 0.0% and 9.0% and 73%; % Inh, Mean ([1]; 3.00E-06 M, SE 12.5): 9.0%; % Inh, individual experiment ([1]; 3.00E-07 M): 14.0% and 2.0% and 0.0%; % Inh, Mean ([1]; 3.00E-07 M, SE 4.3): 2.0%; IC50 ([1]; Table 4, marker compounds, read-out: Androgen Receptor IC50 (Table 4)): 10 µM; inhibition at 10 µM ([1]; at 10 μM): 50%; IC50 ([1]; read-out: androgen receptor assay IC50): 10 µM
CC(C)NC[C@@H](O)COc1cccc2ccccc12 [R-propranolol] | inactive | – | – | – | – | –
NCCCC(N)(C(=O)O)C(F)F (stereo not shown) [a-difluoromethyl-ornithine] | not modified | – | – | – | – | –
Cc1c2oc3c(C)ccc(C(=O)N[C@@H]4C(=O)N[C@H](C(C)C)C(=O)N5CCC[C@H]5C(=O)N(C)CC(=O)N(C)[C@@H](C(C)C)C(=O)O[C@@H]4C)c3nc-2c(C(=O)N[C@@H]2C(=O)N[C@H](C(C)C)C(=O)N3CCC[C@H]3C(=O)N(C)CC(=O)N(C)[C@@H](C(C)C)C(=O)O[C@@H]2C)c(N)c1=O [actinomycin D] (I: T[dV]P[Sar][NMeV] / II: T[dV]P[Sar][NMeV]; ester I:1-I:C, II:1-II:C; linker I:N-II:N via Actinocin(9to1)) | antagonized the effect of the total lipidic extract without modifying that of the saponifiable extract | – | – | – | – | –
O=c1c(-c2ccc(O)cc2)coc2cc(O)cc(O)c12 [genistein] | not modified | – | – | – | – | –
O=C1CCN(c2ccccc2)N1 [phenidone, reference compound] | – | – | – | – | – | IC50 (5-lipoxygenase; reference compound, read-out: IC50, reference compounds, 5-lipoxygenase): 30 µM
C[C@]12CC[C@H]3[C@@H](CCC4=CC(=O)CC[C@@]43C)[C@@H]1CC[C@@H]2O [testosterone] | – | – | – | – | – | Testosterone, Vmax (Type 1 5α-reductase): 4.2 nmoles/10^6 cells/min; Km (Type 1 5α-reductase; [5]): 2.9 µM; Testosterone, Vmax (Type 2 5α-reductase): 57.6 nmoles/10^6 cells/min; Km (Type 2 5α-reductase; [5]): 0.5 µM
CC[C@H](CC[C@@H](C)[C@H]1CC[C@H]2[C@@H]3CC=C4C[C@@H](O)CC[C@]4(C)[C@H]3CC[C@]12C)C(C)C [β-sitosterol] | – | – | – | – | – | IC50 (Cyclooxygenase-1): > 300 µM; IC50 (Cyclooxygenase-2): > 300 µM; IC50 (5-lipoxygenase): > 30 µM
